# In BindingDB's records for doi:10.1016/j.bmcl.2009.06.075 (Pfizer, 2009):
# Assay: Antagonist activity at human P2Y12 receptor assessed as inhibition of ADP-induced platelet-rich plasma aggregation by turbidimetric method
row,IC50,Structure (SMILES)
1,3.8 µM,CCOC(=O)N1CCN(C(=O)[C@H](CCC(=O)O)NC(=O)c2cc(OCCCN)cc(-c3ccccc3)n2)CC1 [(S)-4-(4-(3-aminopropoxy)-6-phenylpicolinamido)-5-(4-(ethoxycarbonyl)piperazin-1-yl)-5-oxopentanoic acid]
2,2.3 µM,CCOC(=O)N1CCN(C(=O)[C@H](CCC(=O)O)NC(=O)c2cc(N3CCN(CCN(C)C)CC3)cc(-c3ccccc3)n2)CC1 [(S)-4-(4-(4-(2-(dimethylamino)ethyl)piperazin-1-yl)-6-phenylpicolinamido)-5-(4-(ethoxycarbonyl)piperazin-1-yl)-5-oxopentanoic acid]
3,14.1 µM,NCC1CCN(c2cc(C(=O)N[C@@H](CCC(=O)O)C(=O)N3CCN(C(=O)OCCC4CCCC4)CC3)nc(-c3ccccc3)c2)CC1 [(S)-4-(4-(4-(aminomethyl)piperidin-1-yl)-6-phenylpicolinamido)-5-(4-((2-cyclopentylethoxy)carbonyl)piperazin-1-yl)-5-oxopentanoic acid]
4,3.3 µM,CCOC(=O)N1CCN(C(=O)[C@H](CCC(=O)O)NC(=O)c2cc(N3CCC(CN)CC3)cc(-c3ccccc3)n2)CC1 [(S)-4-(4-(4-(aminomethyl)piperidin-1-yl)-6-phenylpicolinamido)-5-(4-(ethoxycarbonyl)piperazin-1-yl)-5-oxopentanoic acid]
5,1.6 µM,CCCCCCOC(=O)N1CCN(C(=O)[C@H](CCC(=O)O)NC(=O)c2cc(N3CCC(CN)CC3)cc(-c3ccccc3)n2)CC1 [(S)-4-(4-(4-(aminomethyl)piperidin-1-yl)-6-phenylpicolinamido)-5-(4-(hexyloxycarbonyl)piperazin-1-yl)-5-oxopentanoic acid]
6,2.8 µM,CCOC(=O)N1CCN(C(=O)[C@H](CCC(=O)O)NC(=O)c2cc(N3CCC(N)CC3)cc(-c3ccccc3)n2)CC1 [(S)-4-(4-(4-aminopiperidin-1-yl)-6-phenylpicolinamido)-5-(4-(ethoxycarbonyl)piperazin-1-yl)-5-oxopentanoic acid]
7,2.4 µM,CCCCCOC(=O)N1CCN(C(=O)[C@H](CCC(=O)O)NC(=O)c2cc(N3CCC(O)CC3)cc(-c3ccccc3)n2)CC1 [(S)-4-(4-(4-hydroxypiperidin-1-yl)-6-phenylpicolinamido)-5-oxo-5-(4-(pentyloxycarbonyl)piperazin-1-yl)pentanoic acid]
8,81 µM,CCOC(=O)N1CCN(C(=O)[C@H](CCC(=O)O)NC(=O)c2cc(NCc3ccccc3)cc(-c3ccccc3)n2)CC1 [(S)-4-(4-(benzylamino)-6-phenylpicolinamido)-5-(4-(ethoxycarbonyl)piperazin-1-yl)-5-oxopentanoic acid]
9,31 µM,CCOC(=O)N1CCN(C(=O)[C@H](CCC(=O)O)NC(=O)c2cc(OCc3ccccc3)cc(-c3ccccc3)n2)CC1 [(S)-4-(4-(benzyloxy)-6-phenylpicolinamido)-5-(4-(ethoxycarbonyl)piperazin-1-yl)-5-oxopentanoic acid]
10,> 100 µM,CCOC(=O)N1CCN(C(=O)[C@H](CCC(=O)O)NC(=O)c2cc(N(CC)CC)cc(-c3ccccc3)n2)CC1 [(S)-4-(4-(diethylamino)-6-phenylpicolinamido)-5-(4-(ethoxycarbonyl)piperazin-1-yl)-5-oxopentanoic acid]
11,17.7 µM,CCCCCCOC(=O)N1CCN(C(=O)[C@H](CCC(=O)O)NC(=O)c2cc(N(C)CCS(C)(=O)=O)cc(-c3ccccc3)n2)CC1 [(S)-4-(4-(methyl(2-(methylsulfonyl)ethyl)amino)-6-phenylpicolinamido)-5-oxo-5-(4-(hexyloxycarbonyl)piperazin-1-yl)pentanoic acid]
12,4.1 µM,CCCCCOC(=O)N1CCN(C(=O)[C@H](CCC(=O)O)NC(=O)c2cc(N(C)CCS(C)(=O)=O)cc(-c3ccccc3)n2)CC1 [(S)-4-(4-(methyl(2-(methylsulfonyl)ethyl)amino)-6-phenylpicolinamido)-5-oxo-5-(4-(pentyloxycarbonyl)piperazin-1-yl)pentanoic acid]
13,57.8 µM,O=C(O)CC[C@H](NC(=O)c1cc(N2CCC(O)CC2)cc(-c2ccccc2)n1)C(=O)N1CCN(C(=O)OCCC2CCCC2)CC1 [(S)-5-(4-((2-cyclopentylethoxy)carbonyl)piperazin-1-yl)-4-(4-(4-hydroxypiperidin-1-yl)-6-phenylpicolinamido)-5-oxopentanoic acid]
14,17.5 µM,CN(CCS(C)(=O)=O)c1cc(C(=O)N[C@@H](CCC(=O)O)C(=O)N2CCN(C(=O)OCCC3CCCC3)CC2)nc(-c2ccccc2)c1 [(S)-5-(4-((2-cyclopentylethoxy)carbonyl)piperazin-1-yl)-4-(4-(methyl(2-(methylsulfonyl)ethyl)amino)-6-phenylpicolinamido)-5-oxopentanoic acid]
15,11.1 µM,C=CCOC(=O)N1CCN(C(=O)[C@H](CCC(=O)O)NC(=O)c2cc(OCCO)cc(-c3ccccc3)n2)CC1 [(S)-5-(4-(allyloxycarbonyl)piperazin-1-yl)-4-(4-(2-hydroxyethoxy)-6-phenylpicolinamido)-5-oxopentanoic acid]
16,13.3 µM,C=CCOC(=O)N1CCN(C(=O)[C@H](CCC(=O)O)NC(=O)c2cc(OCCOC)cc(-c3ccccc3)n2)CC1 [(S)-5-(4-(allyloxycarbonyl)piperazin-1-yl)-4-(4-(2-methoxyethoxy)-6-phenylpicolinamido)-5-oxopentanoic acid]
17,9.4 µM,C=CCOC(=O)N1CCN(C(=O)[C@H](CCC(=O)O)NC(=O)c2cc(OC3CCNCC3)cc(-c3ccccc3)n2)CC1 [(S)-5-(4-(allyloxycarbonyl)piperazin-1-yl)-5-oxo-4-(6-phenyl-4-(piperidin-4-yloxy)picolinamido)pentanoic acid]
18,8.1 µM,CCOC(=O)N1CCN(C(=O)[C@H](CCC(=O)O)NC(=O)c2cc(NCCO)cc(-c3ccccc3)n2)CC1 [(S)-5-(4-(ethoxycarbonyl)piperazin-1-yl)-4-(4-(2-hydroxyethylamino)-6-phenylpicolinamido)-5-oxopentanoic acid]
19,5.8 µM,CCOC(=O)N1CCN(C(=O)[C@H](CCC(=O)O)NC(=O)c2cc(OCCOC)cc(-c3ccccc3)n2)CC1 [(S)-5-(4-(ethoxycarbonyl)piperazin-1-yl)-4-(4-(2-methoxyethoxy)-6-phenylpicolinamido)-5-oxopentanoic acid]

row,Structure (SMILES),IC50
1,C=CCOC(=O)N1CCN(C(=O)[C@H](CCC(=O)O)NC(=O)c2cc(OCCCC)cc(-c3ccccc3)n2)CC1 [(S)-5-(4-(allyloxycarbonyl)piperazin-1-yl)-4-(4-butoxy-6-phenylpicolinamido)-5-oxopentanoic acid],61.7 µM
2,CCCCOC(=O)N1CCN(C(=O)[C@H](CCC(=O)O)NC(=O)c2cc(OCCO)cc(-c3ccccc3)n2)CC1 [(S)-5-(4-(butoxycarbonyl)piperazin-1-yl)-4-(4-(2-hydroxyethoxy)-6-phenylpicolinamido)-5-oxopentanoic acid],7.8 µM
3,CCCCOC(=O)N1CCN(C(=O)[C@H](CCC(=O)O)NC(=O)c2cc(OC3CCNCC3)cc(-c3ccccc3)n2)CC1 [(S)-5-(4-(butoxycarbonyl)piperazin-1-yl)-5-oxo-4-(6-phenyl-4-(piperidin-4-yloxy)picolinamido)pentanoic acid],1.1 µM
4,CCCCOC(=O)N1CCN(C(=O)[C@H](CCC(=O)O)NC(=O)c2cccc(-c3ccccc3)n2)CC1 [(S)-5-(4-(butoxycarbonyl)piperazin-1-yl)-5-oxo-4-(6-phenylpicolinamido)pentanoic acid],28 µM
